{
  "source": "patent US9596854B2",
  "about": "“Fungicidal penflufen mixtures” (priority 2010, dated 2017)",
  "experiment_in_all_cases": "Synergism test: MIC of radial hyphae growth on malt extract/peptone agar, SI by Kull",
  "type_in_all_cases": "cell-based",
  "key": {"Coriolus versicolor": {"system": "Coriolus versicolor", "conditions": "for MIC: Trametes versicolor"}, "Poria placenta": {"system": "Poria placenta", "conditions": "nutrient agar, 26° C"}, "Gloeophyllum trabeum": {"system": "Gloeophyllum trabeum"}, "Stereum sanguinolentum": {"system": "Stereum sanguinolentum", "conditions": "nutrient agar, 26° C"}, "Coniophora puteana": {"system": "Coniophora puteana", "conditions": "Example 8, penflufen/boron oxide, nutrient agar, 26° C"}, "[1]": {"conditions": "Example 4, penflufen/DDAC, read-out: MIC Poria placenta"}, "[2]": {"conditions": "Example 1, penflufen/IPBC, nutrient agar, 26° C, complete suppression of radial hyphae growth, read-out: MIC against Gloeophyllum trabeum"}, "[3]": {"conditions": "Example 3, penflufen/Lonzabac, nutrient agar, 26° C, read-out: MIC against Coriolus versicolor"}, "[4]": {"conditions": "Example 9, penflufen/boric acid, nutrient agar, 26° C, read-out: MIC Gloeophyllum trabeum"}, "[5]": {"conditions": "Example 5, penflufen/DDA propionate"}},
  "note": "Read-outs that look alike come from different tables or passages of the source.",
  "data": [
    {"compound": "CCCCCCCCCC[N+](C)(C)CCCCCCCCCC.[Cl-]", "note": "[DDAC, Didecyldimethylammonium Chloride]", "values": [
      {"measurement": "MIC", "setting": "Coriolus versicolor; read-out: MIC Coriolus versicolor", "value": 60, "unit": "µg/mL"},
      {"measurement": "MIC", "setting": "Poria placenta; [1]", "value": 100, "unit": "µg/mL"}
    ]},
    {"compound": "CCCCNC(=O)OCC#CI", "note": "[IPBC, 3-Iodo-2-propynyl N-butylcarbamate]", "values": [
      {"measurement": "MIC", "setting": "Gloeophyllum trabeum; [2]", "value": 10, "unit": "µg/mL"}
    ]},
    {"compound": "CCCCCCCCCCCCN(CCCN)CCCN", "note": "[Lonzabac, N-(3-aminopropyl)-N-dodecyl-1,3-propanediamine]", "values": [
      {"measurement": "MIC", "setting": "Coriolus versicolor; [3]", "value": 30, "unit": "µg/mL"}
    ]},
    {"compound": "OB(O)O", "note": "[boric acid]", "values": [
      {"measurement": "MIC", "setting": "Gloeophyllum trabeum; [4]", "value": 100, "unit": "µg/mL"},
      {"measurement": "MIC", "setting": "Coriolus versicolor; Example 9, penflufen/boric acid, nutrient agar, 26° C, read-out: MIC Coriolus versicolor", "value": 100, "unit": "µg/mL"}
    ]},
    {"compound": "Oc1ccccc1-c1ccccc1", "note": "[o-phenylphenol]", "values": [
      {"measurement": "MIC", "setting": "Gloeophyllum trabeum; read-out: MIC against Gloeophyllum trabeum", "value": 60, "unit": "µg/mL"}
    ]},
    {"compound": "Cc1nn(C)c(F)c1C(=O)Nc1ccccc1C(C)CC(C)C", "note": "(stereo not drawn) [penflufen]", "values": [
      {"measurement": "MIC", "setting": "Gloeophyllum trabeum; [2]", "value": 0.3, "unit": "µg/mL"},
      {"measurement": "MIC", "setting": "Gloeophyllum trabeum; [4]", "value": 0.3, "unit": "µg/mL"},
      {"measurement": "MIC", "setting": "Gloeophyllum trabeum; Example 11, penflufen/o-phenylphenol, nutrient agar, 26° C, read-out: MIC against Gloeophyllum trabeum", "value": 0.7, "unit": "µg/mL"},
      {"measurement": "MIC Coriolus versicolor", "setting": "Coriolus versicolor; Example 9, penflufen/boric acid, nutrient agar, 26° C", "value": 0.1, "unit": "ppm"},
      {"measurement": "MIC", "setting": "Coriolus versicolor; [3]", "value": 0.5, "unit": "µg/mL"},
      {"measurement": "MIC", "setting": "Coriolus versicolor; Example 4, penflufen/DDAC, nutrient agar, 26° C, read-out: MIC Coriolus versicolor", "value": 0.1, "unit": "µg/mL"},
      {"measurement": "MIC Stereum sanguinolentum", "setting": "Stereum sanguinolentum; Example 7, penflufen/Carboquat", "value": 3.0, "unit": "ppm"},
      {"measurement": "MIC", "setting": "Stereum sanguinolentum; Stereum sanguinolentum, Example 5, penflufen/DDA propionate", "value": 3, "unit": "µg/mL"},
      {"measurement": "MIC", "setting": "Poria placenta; Example 2, penflufen/DCOIT, read-out: MIC against Poria placenta", "value": 0.3, "unit": "µg/mL"},
      {"measurement": "MIC", "setting": "Poria placenta; [1]", "value": 0.1, "unit": "µg/mL"},
      {"measurement": "MIC", "setting": "Poria placenta; Example 5, penflufen/DDA propionate, read-out: MIC Poria placenta", "value": 0.3, "unit": "µg/mL"},
      {"measurement": "MIC", "setting": "Poria placenta; Example 6, penflufen/benzalkonium chloride, read-out: MIC against Poria placenta", "value": 0.3, "unit": "µg/mL"},
      {"measurement": "MIC", "setting": "Poria placenta; Example 7, penflufen/Carboquat, read-out: MIC Poria placenta", "value": 0.3, "unit": "µg/mL"},
      {"measurement": "MIC", "setting": "Poria placenta; Example 10, penflufen/sodium borate, read-out: MIC against Poria placenta", "value": 0.3, "unit": "µg/mL"},
      {"measurement": "MIC", "setting": "Coniophora puteana; Coniophora puteana, read-out: MIC against Coniophora puteana", "value": 0.7, "unit": "µg/mL"}
    ]},
    {"compound": "O.O.O.O.O.O.O.O.O.O.[Na+].[Na+].[O-]B1OB2OB([O-])OB(O1)O2", "note": "[sodium borate]", "values": [
      {"measurement": "MIC against Poria placenta", "setting": "Poria placenta; Example 10, penflufen/sodium borate", "value": 100.0, "unit": "ppm"}
    ]},
    {"compound": "benzalkonium chloride", "values": [
      {"measurement": "MIC against Poria placenta", "setting": "Poria placenta; Example 6, penflufen/benzalkonium chloride", "value": 100.0, "unit": "ppm"}
    ]},
    {"compound": "boron oxide", "values": [
      {"measurement": "MIC against Coniophora puteana", "setting": "Coniophora puteana", "value": 100, "unit": "ppm"}
    ]},
    {"compound": "didecylmethylpoly(oxyethyl)ammonium Propionate [DDA propionate]", "values": [
      {"measurement": "MIC Stereum sanguinolentum", "setting": "Stereum sanguinolentum; [5]", "value": 30.0, "unit": "ppm"},
      {"measurement": "MIC Poria placenta", "setting": "Poria placenta; [5]", "value": 100.0, "unit": "ppm"}
    ]}
  ]
}
